Laboratory results from the NIST ThermoML archive (doi:10.1016/j.fluid.2013.10.038).

Experiment: excess molar enthalpy (molar enthalpy of mixing); xn = mol fraction of the nth substance listed
Details: Liquid, Flow calorimetry

CCOC(C)=O [ethyl acetate] + O=C=O
excess molar enthalpy [kcal/mol]
Details	298.15 K	303.15 K	308.15 K
5000 kPa, x2 = 0.099	-0.284	-0.294	-0.346
5000 kPa, x2 = 0.199	-0.567	-0.582	-0.556
5000 kPa, x2 = 0.3	-0.837	-0.87	-0.839
5000 kPa, x2 = 0.4	-1.11	-1.14	-1.1
5000 kPa, x2 = 0.5	-1.37	–	–
6000 kPa, x2 = 0.101	-0.251	-0.275	-0.274
6000 kPa, x2 = 0.2	-0.512	-0.535	-0.543
6000 kPa, x2 = 0.3	-0.757	-0.793	-0.791
6000 kPa, x2 = 0.399	-0.984	-1.04	-1.05
6000 kPa, x2 = 0.5	-1.21	-1.27	–
7000 kPa, x2 = 0.1	-0.0915	-0.216	-0.238
7000 kPa, x2 = 0.2	-0.167	-0.432	-0.473
7000 kPa, x2 = 0.299	-0.239	-0.647	-0.709
7000 kPa, x2 = 0.4	-0.304	-0.849	-0.928
7000 kPa, x2 = 0.5	–	-1.02	-1.13
